Measurements as given in patent publication US9827312B2, “Method for carrying therapeutic substances into cells” (MAGFORCE AG, priority 2005, dated 2017).

Assays:
Settings in all cases: procedure of example 2
[1] = system: colon carcinoma cell line WiDr; assay: Increase in the activity of cytostatics with nanoparticles (Table 1), WiDr; type: cell-based, human
Procedure: (§1) The experiments in vitro were carried out with the cell lines BT20 (breast carcinoma) and WiDr (colon carcinoma). The tumor cells were taken from tumor tissue of a patient and cultivated as described in DE 199 12 798 C1. 2×10^6 cells, respectively, were prepared in a 75 cm^3 cell culture bottle with 25 ml of cell culture medium (RPMI+10% FBS+1.2 ml of pyruvate for WiDr cells, or respectively BME+10% FBS+pyruvate+5 ml of non-essential amino acids+5 ml glutamine for BT20 cells) for testing the efficacy of the cefamandole/nanoparticle mixture. 136 μl of magnetic fluid MFL AS M01 (iron oxide nanoparticle coated with polycondensed N-(2-aminoethyl)-3-(trimethoxysilyl)propylamine, manufacturer: MagForce Nanotechnologies GmbH, Berlin, Germany) (cFe=2 mol/l) and 390 μl of cefamandole solution (stock solution 1 mg/ml in 0.9% NaCl) were added to said cell suspension.
(§2) Corresponding to the experiment procedure according to example 2, the following […] were tested in vitro with the active ingredients listed in table 1: a) glioblastoma human cell line RUSIRS 1; b) breast carcinoma cell lines BT20; c) colon carcinoma cell line WiDR; d) bronchial carcinoma cells NSCLC, e) rectal carcinoma cells and f) prostate carcinoma cell line DU 145.
(§3) In all cases, an increased activity of the cytostatic could be observed. The increase in activity is indicated in parentheses after the respective cytostatic, wherein (+) means an increase of about 5% to 80% and (++) means an increase of 80% to 500%.

[2] = system: breast carcinoma cell lines BT20; assay: Increase in the activity of cytostatics with nanoparticles (Table 1), BT20; type: cell-based, human
Procedure: as §1, §2, §3

[3] = system: bronchial carcinoma cells NSCLC; assay: Increase in the activity of cytostatics with nanoparticles (Table 1), NSCLC; type: cell-based
Procedure: as §1, §2, §3

neuroglioma cell line H4 = assay: Increase in the activity of cytostatics with nanoparticles (Table 1), H4; type: cell-based
Procedure: as §1, §2, §3

[4] = system: prostate carcinoma cell line DU 145; assay: Increase in the activity of cytostatics with nanoparticles (Table 1), DU 145; type: cell-based
Procedure: as §1, §2, §3

[5] = system: glioblastoma human cell line RUSIRS1; assay: Increase in the activity of cytostatics with nanoparticles (Table 1), RUSIRS1; type: cell-based
Procedure: as §1, §2, §3

rectal carcinoma cells = assay: Increase in the activity of cytostatics with nanoparticles (Table 1), rectal carcinoma; type: cell-based
Procedure: as §1, §2, §3

## CC/C(=C(\c1ccccc1)c1ccc(OCCN(C)C)cc1)c1ccccc1 [tamoxifen]
[1]
  increase in the activity of cytostatics: (++) ((++) means an increase of 80% to 500%)
[2]
  increase in the activity of cytostatics: (+) ((+) means an increase of about 5% to 80%)
[3]
  increase in the activity of cytostatics: (+) ((+) means an increase of about 5% to 80%)
Neuroglioma cell line H4
  increase in the activity of cytostatics: (+) ((+) means an increase of about 5% to 80%)
[4]
  increase in the activity of cytostatics: (+) ((+) means an increase of about 5% to 80%)
[5]
  increase in the activity of cytostatics: (+) ((+) means an increase of about 5% to 80%)

## Nc1nc(Cl)nc2c1ncn2[C@H]1C[C@H](O)[C@@H](CO)O1 [cladribine]
[1]
  increase in the activity of cytostatics: (++) ((++) means an increase of 80% to 500%)
[2]
  increase in the activity of cytostatics: (+) ((+) means an increase of about 5% to 80%)
[3]
  increase in the activity of cytostatics: (++) ((++) means an increase of 80% to 500%)
Neuroglioma cell line H4
  increase in the activity of cytostatics: (+) ((+) means an increase of about 5% to 80%)
[4]
  increase in the activity of cytostatics: (+) ((+) means an increase of about 5% to 80%)
[5]
  increase in the activity of cytostatics: (+) ((+) means an increase of about 5% to 80%)

## CN(C)[C@@H]1C(O)=C(C(N)=O)C(=O)[C@@]2(O)C(O)=C3C(=O)c4c(O)cccc4[C@@](C)(O)[C@H]3C[C@@H]12 [tetracycline]
[1]
  increase in the activity of cytostatics: (+) ((+) means an increase of about 5% to 80%)
[2]
  increase in the activity of cytostatics: (+) ((+) means an increase of about 5% to 80%)
[3]
  increase in the activity of cytostatics: (+) ((+) means an increase of about 5% to 80%)
Neuroglioma cell line H4
  increase in the activity of cytostatics: (+) ((+) means an increase of about 5% to 80%)
[4]
  increase in the activity of cytostatics: (++) ((++) means an increase of 80% to 500%)
[5]
  increase in the activity of cytostatics: (+) ((+) means an increase of about 5% to 80%)
Rectal carcinoma cells
  increase in the activity of cytostatics: (++) ((++) means an increase of 80% to 500%)

## CN1CCCC(n2nc(Cc3ccc(Cl)cc3)c3ccccc3c2=O)CC1 (stereo not shown) [azelastine]
[2]
  increase in the activity of cytostatics: (+) ((+) means an increase of about 5% to 80%)
Neuroglioma cell line H4
  increase in the activity of cytostatics: (+) ((+) means an increase of about 5% to 80%)
[4]
  increase in the activity of cytostatics: (+) ((+) means an increase of about 5% to 80%)
[5]
  increase in the activity of cytostatics: (+) ((+) means an increase of about 5% to 80%)
Rectal carcinoma cells
  increase in the activity of cytostatics: (+) ((+) means an increase of about 5% to 80%)

## COC(=O)C1=C(C)NC(C)=C(C(=O)OC)C1c1ccccc1[N+](=O)[O-] [nifedipine]
[1]
  increase in the activity of cytostatics: (+) ((+) means an increase of about 5% to 80%)
[2]
  increase in the activity of cytostatics: (+) ((+) means an increase of about 5% to 80%)
[3]
  increase in the activity of cytostatics: (+) ((+) means an increase of about 5% to 80%)
Neuroglioma cell line H4
  increase in the activity of cytostatics: (+) ((+) means an increase of about 5% to 80%)
[4]
  increase in the activity of cytostatics: (+) ((+) means an increase of about 5% to 80%)
[5]
  increase in the activity of cytostatics: (+) ((+) means an increase of about 5% to 80%)

## CC(C)Cc1ccc(C(C)C(=O)O)cc1 (stereo not shown) [ibuprofen]
[1]
  increase in the activity of cytostatics: (++) ((++) means an increase of 80% to 500%)
[2]
  increase in the activity of cytostatics: (+) ((+) means an increase of about 5% to 80%)
[3]
  increase in the activity of cytostatics: (+) ((+) means an increase of about 5% to 80%)
Neuroglioma cell line H4
  increase in the activity of cytostatics: (+) ((+) means an increase of about 5% to 80%)
[4]
  increase in the activity of cytostatics: (+) ((+) means an increase of about 5% to 80%)
[5]
  increase in the activity of cytostatics: (+) ((+) means an increase of about 5% to 80%)
Rectal carcinoma cells
  increase in the activity of cytostatics: (+) ((+) means an increase of about 5% to 80%)

## CCC(C)(C)C(=O)O[C@H]1C[C@@H](C)C=C2C=C[C@H](C)[C@H](CC[C@@H]3C[C@@H](O)CC(=O)O3)[C@H]21 [simvastatin]
[1]
  increase in the activity of cytostatics: (+) ((+) means an increase of about 5% to 80%)
[2]
  increase in the activity of cytostatics: (+) ((+) means an increase of about 5% to 80%)
[3]
  increase in the activity of cytostatics: (++) ((++) means an increase of 80% to 500%)
Neuroglioma cell line H4
  increase in the activity of cytostatics: (+) ((+) means an increase of about 5% to 80%)
[4]
  increase in the activity of cytostatics: (+) ((+) means an increase of about 5% to 80%)
[5]
  increase in the activity of cytostatics: (+) ((+) means an increase of about 5% to 80%)
Rectal carcinoma cells
  increase in the activity of cytostatics: (+) ((+) means an increase of about 5% to 80%)

## Nc1nc(O)c2ncn(COC(CO)CO)c2n1 [ganciclovir]
[1]
  increase in the activity of cytostatics: (+) ((+) means an increase of about 5% to 80%)
[2]
  increase in the activity of cytostatics: (+) ((+) means an increase of about 5% to 80%)
[3]
  increase in the activity of cytostatics: (+) ((+) means an increase of about 5% to 80%)
Neuroglioma cell line H4
  increase in the activity of cytostatics: (+) ((+) means an increase of about 5% to 80%)
[4]
  increase in the activity of cytostatics: (+) ((+) means an increase of about 5% to 80%)
[5]
  increase in the activity of cytostatics: (++) ((++) means an increase of 80% to 500%)
Rectal carcinoma cells
  increase in the activity of cytostatics: (+) ((+) means an increase of about 5% to 80%)

## COCc1c(C(C)C)nc(C(C)C)c(/C=C/[C@@H](O)C[C@@H](O)CC(=O)O)c1-c1ccc(F)cc1 [cerivastatin]
[1]
  increase in the activity of cytostatics: (+) ((+) means an increase of about 5% to 80%)
[2]
  increase in the activity of cytostatics: (+) ((+) means an increase of about 5% to 80%)
[3]
  increase in the activity of cytostatics: (+) ((+) means an increase of about 5% to 80%)
Neuroglioma cell line H4
  increase in the activity of cytostatics: (+) ((+) means an increase of about 5% to 80%)
[4]
  increase in the activity of cytostatics: (+) ((+) means an increase of about 5% to 80%)
[5]
  increase in the activity of cytostatics: (+) ((+) means an increase of about 5% to 80%)
Rectal carcinoma cells
  increase in the activity of cytostatics: (++) ((++) means an increase of 80% to 500%)

## CS(=O)(=O)OCCCCOS(C)(=O)=O [busulfan]
[1]
  increase in the activity of cytostatics: (+) ((+) means an increase of about 5% to 80%)
[3]
  increase in the activity of cytostatics: (++) ((++) means an increase of 80% to 500%)
Neuroglioma cell line H4
  increase in the activity of cytostatics: (+) ((+) means an increase of about 5% to 80%)
[4]
  increase in the activity of cytostatics: (+) ((+) means an increase of about 5% to 80%)
[5]
  increase in the activity of cytostatics: (+) ((+) means an increase of about 5% to 80%)

## Cn1c(CCCC(=O)O)nc2cc(N(CCCl)CCCl)ccc21 [bendamustine]
[2]
  increase in the activity of cytostatics: (+) ((+) means an increase of about 5% to 80%)
[3]
  increase in the activity of cytostatics: (+) ((+) means an increase of about 5% to 80%)
[4]
  increase in the activity of cytostatics: (+) ((+) means an increase of about 5% to 80%)
[5]
  increase in the activity of cytostatics: (+) ((+) means an increase of about 5% to 80%)

## O=C(O)Cc1ccccc1Nc1c(Cl)cccc1Cl [diclofenac]
[1]
  increase in the activity of cytostatics: (+) ((+) means an increase of about 5% to 80%)
[3]
  increase in the activity of cytostatics: (+) ((+) means an increase of about 5% to 80%)
Neuroglioma cell line H4
  increase in the activity of cytostatics: (+) ((+) means an increase of about 5% to 80%)
[4]
  increase in the activity of cytostatics: (+) ((+) means an increase of about 5% to 80%)
[5]
  increase in the activity of cytostatics: (+) ((+) means an increase of about 5% to 80%)
Rectal carcinoma cells
  increase in the activity of cytostatics: (++) ((++) means an increase of 80% to 500%)

## C=CC[C@@H]1/C=C(\C)C[C@H](C)C[C@H](OC)[C@H]2O[C@@](O)(C(=O)C(=O)N3CCCC[C@H]3C(=O)O[C@H](/C(C)=C/[C@@H]3CC[C@@H](O)[C@H](OC)C3)[C@H](C)[C@@H](O)CC1=O)[C@H](C)C[C@@H]2OC [tacrolimus]
[2]
  increase in the activity of cytostatics: (+) ((+) means an increase of about 5% to 80%)
[3]
  increase in the activity of cytostatics: (+) ((+) means an increase of about 5% to 80%)
Neuroglioma cell line H4
  increase in the activity of cytostatics: (++) ((++) means an increase of 80% to 500%)
[4]
  increase in the activity of cytostatics: (+) ((+) means an increase of about 5% to 80%)
[5]
  increase in the activity of cytostatics: (+) ((+) means an increase of about 5% to 80%)
Rectal carcinoma cells
  increase in the activity of cytostatics: (+) ((+) means an increase of about 5% to 80%)

## CC[C@@H]1/C=C(\C)C[C@H](C)C[C@H](OC)[C@H]2O[C@@](O)(C(=O)C(=O)N3CCCC[C@H]3C(=O)O[C@H](/C(C)=C/[C@@H]3CC[C@@H](O)[C@H](OC)C3)[C@H](C)[C@@H](O)CC1=O)[C@H](C)C[C@@H]2OC [ascomycin]
[1]
  increase in the activity of cytostatics: (+) ((+) means an increase of about 5% to 80%)
[2]
  increase in the activity of cytostatics: (+) ((+) means an increase of about 5% to 80%)
[3]
  increase in the activity of cytostatics: (+) ((+) means an increase of about 5% to 80%)
[4]
  increase in the activity of cytostatics: (+) ((+) means an increase of about 5% to 80%)
[5]
  increase in the activity of cytostatics: (++) ((++) means an increase of 80% to 500%)
Rectal carcinoma cells
  increase in the activity of cytostatics: (+) ((+) means an increase of about 5% to 80%)
